Series [1] has as its target T1, Peroxisome proliferator-activated receptor alpha (Homo sapiens, UniProt Q07869).
T1 sequence (Q07869 whole entry): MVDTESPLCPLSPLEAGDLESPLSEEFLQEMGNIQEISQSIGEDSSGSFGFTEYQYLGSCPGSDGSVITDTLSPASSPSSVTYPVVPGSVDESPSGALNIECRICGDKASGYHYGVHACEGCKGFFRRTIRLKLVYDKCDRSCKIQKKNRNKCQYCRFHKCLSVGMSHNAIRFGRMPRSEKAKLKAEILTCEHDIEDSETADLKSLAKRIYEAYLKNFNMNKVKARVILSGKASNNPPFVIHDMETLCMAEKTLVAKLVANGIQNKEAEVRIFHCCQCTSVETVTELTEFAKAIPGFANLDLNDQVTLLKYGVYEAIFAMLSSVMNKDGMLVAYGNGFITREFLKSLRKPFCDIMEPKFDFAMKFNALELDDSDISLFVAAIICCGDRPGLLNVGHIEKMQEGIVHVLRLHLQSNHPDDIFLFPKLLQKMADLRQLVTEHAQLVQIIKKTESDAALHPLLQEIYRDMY
Description: Agonist activity at human PPARalpha in HepG2 cells by PPAR-GAL4 transactivation assay. It is filed as functional, cell-based.

Series [2] deals with T2, Peroxisome proliferator-activated receptor gamma (Homo sapiens, UniProt P37231).
T2 sequence (P37231 whole entry): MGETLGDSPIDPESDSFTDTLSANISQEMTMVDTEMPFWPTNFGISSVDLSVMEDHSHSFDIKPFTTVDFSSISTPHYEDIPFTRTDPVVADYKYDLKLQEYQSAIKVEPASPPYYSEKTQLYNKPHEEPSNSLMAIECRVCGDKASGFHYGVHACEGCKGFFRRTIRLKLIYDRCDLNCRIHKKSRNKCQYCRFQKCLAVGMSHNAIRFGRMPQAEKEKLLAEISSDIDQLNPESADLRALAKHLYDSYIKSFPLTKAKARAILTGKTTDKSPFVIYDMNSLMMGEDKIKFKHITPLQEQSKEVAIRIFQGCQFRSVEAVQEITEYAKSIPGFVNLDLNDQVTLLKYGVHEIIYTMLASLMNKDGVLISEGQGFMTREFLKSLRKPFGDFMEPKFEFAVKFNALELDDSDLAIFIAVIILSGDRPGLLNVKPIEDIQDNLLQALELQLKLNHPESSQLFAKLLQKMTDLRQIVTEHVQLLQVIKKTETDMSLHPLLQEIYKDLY
Description: Agonist activity at human PPARgamma in HepG2 cells by PPAR-GAL4 transactivation assay

Series [3] is described as follows: AUC (0-24 hrs) in Sprague-Dawley rat at 10mg/kg, po. The class given is ADME, organism-based. Further details: dose 10 mg/kg, time < 24 hr, route oral. The settings on record: plasma.
Series [4] can be described thus: AUC (0-24 hrs) in Sprague-Dawley rat at 5 mg/kg, iv. Also noted: time < 24 hr, dose 5 mg/kg, route intravenous. To be noted: plasma. It is filed as ADME, organism-based.
Series [5] is described as follows: Cmax in Sprague-Dawley rat at 10 mg/kg, po. It is filed as ADME, organism-based. Further details: dose 10 mg/kg, route oral. The settings on record: in vivo.
The nature of series [6]: Tmax in Sprague-Dawley rat at 10 mg/kg, po. The settings on record: in vivo. The class given is ADME, organism-based. Further details: dose 10 mg/kg, route oral.
Series [7] is described as follows: Half life in Sprague-Dawley rat at 10 mg/kg, po. The settings on record: in vivo. Further details: dose 10 mg/kg, route oral. It is filed as ADME, organism-based.
A short description of series [8]: Half life in Sprague-Dawley rat at 5 mg/kg, iv. It is filed as ADME, organism-based. Further details: dose 5 mg/kg, route intravenous. To be noted: in vivo.
Series [9] in a line: Clearance in Sprague-Dawley rat at 5 mg/kg, iv. The class given is ADME, organism-based. Further details: dose 5 mg/kg, route intravenous. To be noted: in vivo.
Series [10] in a line: Volume of distribution in Sprague-Dawley rat at 5 mg/kg, iv. The class given is ADME, organism-based. The settings on record: in vivo, read-out: Vdss. Further details: dose 5 mg/kg, route intravenous.
Series [11] can be described thus: Bioavailability in Sprague-Dawley rat at 10 mg/kg, po. The class given is ADME, organism-based. The settings on record: in vivo.
Series [12] has as its system Mus musculus. Kind of series: Decrease in plasma glucose level in db/db mouse at 0.1 mg/kg, po. It is filed as functional. Also noted: scale not given: the % may be the effect or the level left.
Series [13] concerns Mus musculus. Description: Decrease in plasma glucose level in db/db mouse at 1 mg/kg, po. The class given is functional. Further details: scale not given: the % may be the effect or the level left.
Series [14] relates to Mus musculus. Description: Decrease in plasma glucose level in db/db mouse at 10 mg/kg, po. The class given is functional. Also noted: scale not given: the % may be the effect or the level left.
Series [15] has as its system Mus musculus. Kind of series: Decrease in plasma triglyceride level in db/db mouse at 0.1 mg/kg, po. The class given is functional. Further details: scale not given: the % may be the effect or the level left.
Series [16] has as its system Mus musculus. Kind of series: Decrease in plasma triglyceride level in db/db mouse at 1 mg/kg, po. Further details: scale not given: the % may be the effect or the level left. The class given is functional.
Series [17] deals with Mus musculus. Description: Decrease in plasma triglyceride level in db/db mouse at 10 mg/kg, po. It is filed as functional. Also noted: scale not given: the % may be the effect or the level left.

One may read the EC50 as the concentration at which the effect is half-maximal. On to `C/C(=N/OCc1ccc(F)cc1)C(Cc1ccc(OCCc2nc(-c3ccccc3)oc2C)cc1)C(=O)O` (stereo not given), for which the EC50 turned out to be 596 nM in series [1] and 5 nM in series [2].
With `CCO/N=C(\C)C(Cc1ccc(OCc2nc(-c3ccccc3)oc2C)cc1)C(=O)O` (stereo not given), the EC50 came out at 91 nM in series [1] and 4 nM in [2].
Regarding `CCO/N=C(\C)C(Cc1ccc(OCc2nc(-c3ccc(F)cc3)oc2C)cc1)C(=O)O` (stereo not given), the EC50 amounted to 12 nM in [1] and 6.8 nM in series [2].
`C/C(=N\OCCF)C(Cc1ccc(OCc2nc(-c3ccc(F)cc3)oc2C)cc1)C(=O)O` (stereo not given): the EC50 in [1] was 23 nM; in [2], 7.7 nM.
`CCO/N=C(\C)C(Cc1ccc(OCCc2nc(-c3ccc(F)cc3)oc2C)cc1)C(=O)O` (stereo not given): the values for the EC50 in series [1] and in series [2] were 11.5 nM and 3 nM, respectively.
Consider `CCCO/N=C(\C)C(Cc1ccc(OCCc2nc(-c3ccc(F)cc3)oc2C)cc1)C(=O)O` (stereo not given), for which the EC50 in series [1] was determined as 4 nM; in series [2] it was 2.1 nM.
Regarding `C/C(=N\OCCF)C(Cc1ccc(OCCc2nc(-c3ccc(F)cc3)oc2C)cc1)C(=O)O` (stereo not given), the EC50 turned out to be 3.5 nM in series [1] and 2.9 nM in series [2].
In the case of `CCCO/N=C(\C)C(Cc1ccc(OCc2nc(C(C)C)oc2C)cc1)C(=O)O` (stereo not given), the EC50 amounted to 105 nM in series [1] and 5 nM in series [2].
On the same counts, the results for `CCO/N=C(\C)C(Cc1ccc(OCCc2nc(C(C)C)oc2C)cc1)C(=O)O` (stereo not given) are 139 nM and 20 nM.
For the molecule `CCCO/N=C(\C)C(Cc1ccc(OCCc2nc(C(C)C)oc2C)cc1)C(=O)O` (stereo not given), the EC50 in [1] is 10 nM; in series [2], 5.2 nM.
For the molecule `CCCCO/N=C(\C)C(Cc1ccc(OCCc2nc(-c3ccccc3)oc2C)cc1)C(=O)O` (stereo not given), the EC50 was 1.3 nM in series [1] and 0.19 nM in series [2].
Consider `C/C(=N\OCC1CC1)C(Cc1ccc(OCCc2nc(-c3ccccc3)oc2C)cc1)C(=O)O` (stereo not given), for which the EC50 came out at 3.1 nM in series [1] and 0.36 nM in [2].
Consider `CC/C(=N\OC)C(Cc1ccc(OCCc2nc(-c3ccccc3)oc2C)cc1)C(=O)O` (stereo not given), for which the EC50 is 32 nM in series [1] and 0.31 nM in series [2].
On the same counts, the results for `CCO/N=C(\CC)C(Cc1ccc(OCCc2nc(-c3ccccc3)oc2C)cc1)C(=O)O` (stereo not given) are 26 nM and 0.1 nM.
As to `CO/N=C(\C)C(Cc1ccc(OCCc2nc(-c3ccccc3)oc2C)cc1)C(=O)O` (stereo not given), the values for the EC50 in [1] and in [2] were 19 nM and 2.1 nM, respectively.
For the molecule `CCCO/N=C(\C)C(Cc1ccc(OCCc2nc(-c3ccccc3)oc2C)cc1)C(=O)O` (stereo not given), the EC50 in series [1] turned out to be 4.9 nM; in series [2], 0.55 nM.
On the same counts, the results for `CCO/N=C(\C)C(Cc1ccc(OCc2nc(C(C)C)oc2C)cc1)C(=O)O` (stereo not given) are 1240 nM and 48 nM.
With `CCCO/N=C(\C)C(Cc1ccc(OCc2nc(-c3ccc(F)cc3)oc2C)cc1)C(=O)O` (stereo not given), the EC50 was 11.7 nM in series [1] and 28 nM in series [2].
For `CCO/N=C(\C)C(Cc1ccc(OCCc2nc(-c3ccccc3)oc2C)cc1)C(=O)O` (stereo not given), the values for the EC50 in series [1] and in [2] were 12 nM and 1 nM, respectively.
The matching figures for `C/C(=N\OCC(C)C)C(Cc1ccc(OCCc2nc(-c3ccccc3)oc2C)cc1)C(=O)O` (stereo not given): 2.2 nM and 0.3 nM.
`C/C(=N\OCc1ccc(F)cc1)C(Cc1ccc(OCCc2nc(-c3ccccc3)oc2C)cc1)C(=O)O` (stereo not given): the EC50 is 10.6 nM in [1] and 0.54 nM in [2].
In general, AUC(0-t) refers to exposure summed from dosing to a finite time, without extrapolation to infinity. As a reminder, the Cmax is the highest concentration seen after dosing. Usually Tmax stands for the time at which the peak concentration occurs. One may read the half-life as the time needed for the level to fall by half in the phase considered. Usually clearance stands for the rate of elimination divided by the concentration. As a reminder, the bioavailability is dose-corrected exposure relative to a reference, in per cent. Consider `CCCO/N=C(\C)C(Cc1ccc(OCc2nc(-c3ccccc3)oc2C)cc1)C(=O)O` (stereo not given), for which the figures for the EC50 in [1] and in [2] were 19 nM and 13 nM, respectively. For the same molecule, the AUC(0-t) at 24 h in series [3] is 162 µg·h/mL; in series [4], 113 µg·h/mL. In series [5], this molecule registered a Cmax of 22600 ng/mL. In series [6], the Tmax was 0.5 h. Also, the results for the half-life in series [7] and in [8] were 8.05 h and 5.93 h, respectively. This molecule also returned a clearance in [9] of 0.8 mL/min/kg. Also, the Vd in [10] amounted to 0.329 L/kg. The same molecule yielded a bioavailability in series [11] of 75.5%. Besides, the Activity in series [12] is 8%; in series [13], 56%; in series [14] it was 73%; in series [15], 43%; in series [16] it was 41%; in series [17], 58%.
`CN(CCOc1ccc(CC2SC(=O)NC2=O)cc1)c1ccccn1` (stereo not given) [ROSIGLITAZONE]: the Activity in series [14] and in series [17] was 65% throughout.
Turning to `CCO[C@@H](Cc1ccc(OCCc2ccc(OS(C)(=O)=O)cc2)cc1)C(=O)O` [TESAGLITAZAR], the EC50 in [1] amounted to 9800 nM; in series [2], 3530 nM. For the same molecule, the Activity came to 68% in [13] and 38% in series [16].

The values are drawn from ChEMBL document CHEMBL1143807, “Design and synthesis of oxime ethers of alpha-acyl-beta-phenylpropanoic acids as PPAR dual agonists” (Bioorg Med Chem Lett, 2007).
